The supplement of paper PMC11061612

Key:
Assay in all cases: Bliss excess, mean over the matrix (fraction); higher = more synergy
NH-12 (Neuroblastoma) = system: NH-12 (Neuroblastoma)
In short: (§1)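 After 24 hours at 37°C and 5% CO2 in 1536-well plates, cells in DMEM/F12 or RPMI plus 10% FBS received two-drug dose matrices for 72 hours. Viability came from CellTiter-Glo 2.0 luminescence and was scaled as inhibition, anchored at 0 by vehicle wells and at 1 by blank wells. Combination Emax is taken as the second-highest inhibition in the matrix, and Bliss excess as the observed combination effect less EA + EB − EA·EB, with EA and EB the single-agent effects.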

[1] = system: PFSK-1 (Other Solid Carcinomas)
In short: as §1

[2] = system: NCI-H2405 (Lung Adenocarcinoma)
In short: as §1

[3] = system: LC4-1 (B-Lymphoblastic Leukemia)
In short: as §1

EW-18 (Ewing's Sarcoma) = system: EW-18 (Ewing's Sarcoma)
In short: as §1

[4] = system: SCC-9 (Oral Cavity Carcinoma)
In short: as §1

BT-20 (Breast Carcinoma) = system: BT-20 (Breast Carcinoma)
In short: as §1

[5] = system: H-EMC-SS (Chondrosarcoma)
In short: as §1

[6] = system: NCI-H322M (Lung Adenocarcinoma)
In short: as §1

[7] = system: LOU-NH91 (Squamous Cell Lung Carcinoma)
In short: as §1

[8] = system: HSC-2 (Oral Cavity Carcinoma)
In short: as §1

[9] = system: OVISE (Ovarian Carcinoma)
In short: as §1

[10] = system: VMRC-LCD (Lung Adenocarcinoma)
In short: as §1

[11] = system: NCI-H513 (Other Solid Carcinomas)
In short: as §1

EW-13 (Ewing's Sarcoma) = system: EW-13 (Ewing's Sarcoma)
In short: as §1

[12] = system: BV-173 (Chronic Myelogenous Leukemia)
In short: as §1

GOTO (Neuroblastoma) = system: GOTO (Neuroblastoma)
In short: as §1

[13] = system: EBC-1 (Squamous Cell Lung Carcinoma)
In short: as §1

[14] = system: KINGS-1 (Low Grade Glioma)
In short: as §1

[15] = system: ASH-3 (Thyroid Gland Carcinoma)
In short: as §1

Structure (SMILES) | Bliss excess (NH-12 (Neuroblastoma)) | Bliss excess [1] | Bliss excess [2] | Bliss excess [3] | Bliss excess (EW-18 (Ewing's Sarcoma)) | Bliss excess [4] | Bliss excess (BT-20 (Breast Carcinoma)) | Bliss excess [5] | Bliss excess [6] | Bliss excess [7] | Bliss excess [8] | Bliss excess [9] | Bliss excess [10] | Bliss excess [11] | Bliss excess (EW-13 (Ewing's Sarcoma)) | Bliss excess [12] | Bliss excess (GOTO (Neuroblastoma)) | Bliss excess [13] | Bliss excess [14] | Bliss excess [15]
COc1nnc2ccc(N3CCC(c4ccc(OCCN5CCN(C)C(=O)[C@H]5C)cc4)CC3)nn12 [AZD5153] + CC1(C)CCC(CN2CCN(c3ccc(C(=O)NS(=O)(=O)c4ccc(NCC5CCOCC5)c([N+](=O)[O-])c4)c(Oc4cnc5[nH]ccc5c4)c3)CC2)=C(c2ccc(Cl)cc2)C1 [Venetoclax] (first compound max 1 µM, 7x7, partner max 1 µM) | -0.0333 | -0.0853 | -0.0484 | -0.0482 | -0.0371 | -0.0478 | -0.071 | -0.0508 | -0.076 | -0.0758 | -0.0196 | -0.013 | -0.063 | -0.086 | 0.0173 | -0.0706 | -0.065 | -0.0413 | -0.0288 | 0.0122
CN(CCO)CC[C@H](CSc1ccccc1)Nc1ccc(S(=O)(=O)NC(=O)c2ccc(N3CCC([C@@H](O)c4ccccc4-c4ccc(Cl)cc4)CC3)cc2)cc1S(=O)(=O)C(F)(F)F [AZD4320] + CN(C)CCCOc1ccc(-c2ccc3ncc4c(c3c2)n(C2CCOCC2)c(=O)n4C)cn1 [AZD0156] (first compound max 1 µM, 7x7, partner max 1 µM) | -0.0565 | 0.0427 | -0.0378 | 0.0937 | 0.0042 | -0.0423 | 0.0323 | -0.0374 | -0.0432 | 0.0054 | -0.0242 | -0.0521 | -0.0542 | -0.0484 | -0.0303 | -0.0681 | -0.0041 | -0.0075 | 0.007 | 0.0341
CN(CCO)CC[C@H](CSc1ccccc1)Nc1ccc(S(=O)(=O)NC(=O)c2ccc(N3CCC([C@@H](O)c4ccccc4-c4ccc(Cl)cc4)CC3)cc2)cc1S(=O)(=O)C(F)(F)F [AZD4320] + Cn1cnc2c(F)c(Nc3ccc(Br)cc3Cl)c(C(=O)NOCCO)cc21 [Selumetinib] (first compound max 1 µM, 7x7, partner max 3 µM) | 0.0593 | 0.057 | 0.0717 | 0.0831 | 0.0109 | 0.005 | 0.0937 | -0.0378 | 0.0818 | 0.0027 | 0.0195 | 0.024 | 0.0277 | 0.0445 | -0.0149 | -0.018 | 0.13 | 0.0478 | 0.0328 | -0.026
CS(=O)(=O)CCNCc1ccc(-c2ccc3ncnc(Nc4ccc(OCc5cccc(F)c5)c(Cl)c4)c3c2)o1 [Lapatinib] + C[C@@H](Oc1cc(-c2cnn(C3CCNCC3)c2)cnc1N)c1c(Cl)ccc(F)c1Cl [Crizotinib] (first compound max 10 µM, 7x7, partner max 10 µM) | -0.0827 | -0.0546 | -0.0396 | -0.0501 | -0.0533 | 0.0015 | -0.0146 | -0.0192 | 0.0188 | 0.0284 | 0.0028 | 0 | -0.0246 | -0.0342 | 0.0066 | -0.037 | -0.0499 | 0.0978 | 0.0032 | -0.0207
CC1(C)CCC(CN2CCN(c3ccc(C(=O)NS(=O)(=O)c4ccc(NCC5CCOCC5)c([N+](=O)[O-])c4)c(Oc4cnc5[nH]ccc5c4)c3)CC2)=C(c2ccc(Cl)cc2)C1 [Venetoclax] + C1CN(CCC1(C(=O)N[C@@H](CCO)C2=CC=C(C=C2)Cl)N)C3=NC=NC4=C3C=CN4 [Capivasertib] (first compound max 1 µM, 7x7, partner max 3 µM) | -0.0289 | 0.0634 | -0.0418 | 0.0227 | -0.0281 | -0.0438 | -0.035 | -0.0204 | -0.103 | -0.0805 | -0.0823 | -0.0059 | -0.0514 | -0.071 | -0.0302 | -0.0613 | 0.0111 | -0.0395 | -0.0696 | -0.0554
CC1(C)CCC(CN2CCN(c3ccc(C(=O)NS(=O)(=O)c4ccc(NCC5CCOCC5)c([N+](=O)[O-])c4)c(Oc4cnc5[nH]ccc5c4)c3)CC2)=C(c2ccc(Cl)cc2)C1 [Venetoclax] + C=CCn1c(=O)c2cnc(Nc3ccc(N4CCN(C)CC4)cc3)nc2n1-c1cccc(C(C)(C)O)n1 [AZD1775] (first compound max 1 µM, partner max 1 µM) | 0.0148 | -0.0171 | -0.0756 | 0.0355 | -0.014 | -0.0451 | -0.0076 | -0.0532 | -0.0173 | -0.0815 | -0.0096 | -0.0676 | -0.0174 | -0.0608 | -0.0523 | -0.0206 | 0.0047 | 0.0315 | 0.0375 | -0.0662
CC1(C)CCC(CN2CCN(c3ccc(C(=O)NS(=O)(=O)c4ccc(NCC5CCOCC5)c([N+](=O)[O-])c4)c(Oc4cnc5[nH]ccc5c4)c3)CC2)=C(c2ccc(Cl)cc2)C1 [Venetoclax] + C[C@@H]1COCCN1C2=NC(=NC(=C2)C3(CC3)[S@](=N)(=O)C)C4=C5C=CNC5=NC=C4 [AZD6738] (first compound max 1 µM, 7x7, partner max 10 µM) | -0.0647 | 0.0119 | -0.06 | 0.0467 | -0.0293 | -0.0433 | -0.0511 | -0.0416 | -0.0433 | -0.0023 | 0.0275 | -0.0658 | -0.0393 | -0.0111 | 0.0008 | -0.0634 | -0.039 | -0.0731 | -0.0432 | -0.131
CC(=O)Nc1cccc(-n2c(=O)n(C3CC3)c(=O)c3c(Nc4ccc(I)cc4F)n(C)c(=O)c(C)c32)c1 [Trametinib] + Cc1nc(-c2cn3c(n2)-c2ccc(-c4cnn(C(C)(C)C(N)=O)c4)cc2OCC3)n(C(C)C)n1 [Taselisib] (first compound max 1 µM, 7x7, partner max 10 µM) | 0.011 | -0.0681 | 0.107 | 0.107 | 0.0163 | 0.192 | 0.118 | 0.106 | 0.0404 | 0.116 | 0.137 | 0.0114 | -0.0267 | 0.0563 | -0.0107 | 0.0965 | 0.0482 | 0.0674 | 0.151 | 0.127
Cn1cnc2c(F)c(Nc3ccc(Br)cc3Cl)c(C(=O)NOCCO)cc21 [Selumetinib] + CCN(CCO)CCCOc1ccc2c(Nc3cc(CC(=O)Nc4cccc(F)c4)[nH]n3)ncnc2c1 [AZD2811] (first compound max 10 µM, 7x7, partner max 1 µM) | -0.0485 | -0.0438 | -0.0127 | -0.0505 | -0.0241 | 0.0722 | 0.0328 | -0.0233 | -0.0069 | -0.0096 | -0.0278 | 0.0202 | -0.0162 | -0.0583 | -0.0108 | -0.0225 | -0.0175 | -0.003 | -0.0447 | 0.0505
C[C@@H](c1ccc2nccn2c1)n1nnc2ncc(-c3cnn(C)c3)nc21 [Savolitinib] + CC1(C)CCC(CN2CCN(c3ccc(C(=O)NS(=O)(=O)c4ccc(NCC5CCOCC5)c([N+](=O)[O-])c4)c(Oc4cnc5[nH]ccc5c4)c3)CC2)=C(c2ccc(Cl)cc2)C1 [Venetoclax] (first compound max 1 µM, 7x7, partner max 1 µM) | -0.0158 | -0.0025 | -0.0793 | -0.0091 | -0.067 | -0.0328 | -0.0427 | -0.0186 | -0.0536 | -0.0801 | 0.0064 | -0.0481 | -0.0153 | -0.0719 | -0.0796 | 0.0064 | -0.0228 | -0.0642 | -0.0566 | -0.0329
COc1cccc(OCCCN)c1-c1cc(Nc2cnc(C#N)cn2)n[nH]1 [Prexasertib] + CCc1c2c(nc3ccc(O)cc13)-c1cc3c(c(=O)n1C2)COC(=O)[C@]3(O)CC [SN-38] (first compound max 1 µM, 7x7, partner max 0.3 µM) | -0.078 | -0.0513 | -0.058 | -0.0868 | -0.0728 | 0.0405 | 0.0673 | -0.0116 | -0.0161 | -0.0648 | -0.0507 | -0.136 | 0.023 | -0.0068 | -0.0697 | -0.0594 | -0.058 | -0.0694 | 0.0121 | 0.0624
CC(=O)c1c(C)c2cnc(Nc3ccc(N4CCNCC4)cn3)nc2n(C2CCCC2)c1=O [Palbociclib] + Cc1c2c(nn1C)CSCc1cc(n(C)n1)CSc1cc(c3ccccc3c1)OCCCc1c(C(=O)O)n(C)c3c-2c(Cl)ccc13 [AZD5991] (first compound max 10 µM, 7x7, partner max 1 µM) | 0.0045 | -0.0471 | -0.0149 | -0.0081 | -0.0135 | -0.0368 | -0.0834 | 0.0444 | -0.0174 | -0.0901 | -0.0997 | -0.0286 | -0.0288 | -0.0484 | -0.0346 | -0.105 | 0.0483 | 0.0345 | 0.0346 | -0.0324
CC1(C)CCC(CN2CCN(c3ccc(C(=O)NS(=O)(=O)c4ccc(NCC5CCOCC5)c([N+](=O)[O-])c4)c(Oc4cnc5[nH]ccc5c4)c3)CC2)=C(c2ccc(Cl)cc2)C1 [Venetoclax] + COc1cc(Nc2ncc3c(n2)-c2ccc(Cl)cc2C(c2c(F)cccc2OC)=NC3)ccc1C(=O)O [Alisertib] (first compound max 1 µM, 7x7, partner max 10 µM) | 0.0844 | 0.0652 | -0.0251 | 0.0661 | 0.0421 | -0.0571 | 0.08 | 0.0092 | -0.0612 | -0.0026 | 0.0857 | -0.0523 | -0.043 | -0.0137 | 0.0517 | -0.018 | -0.0217 | -0.0271 | -0.0049 | 0.0145
